For 12 compounds, TGI results are on record in PubChem BioAssay (NCI).

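Assay format: 96-well plates, 48-hour exposure. TGI: concentration producing complete growth inhibition.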

Test systems include CAKI-1 renal; HCT-116 colon; MDA-MB-231 breast; MDA-MB-435; MDA-N; MOLT-4 leukemia; NCI-H226 lung; NCI-H23 lung; NCI-H460 lung; NCI-H522 lung; NCI/ADR-RES ovarian; OVCAR-8 ovarian; SF-268 CNS; SK-MEL-5 melanoma; SR leukemia; SW-620 colon; TK-10 renal.
Holding throughout (assay): NCI tumour cell line growth inhibition, 48 h

With `CC[C@@H]1C(=O)OC[C@@H]1Cc1cncn1C`, the TGI in the assay with CAKI-1 renal, in the assay on HCT-116 colon, in the assay with MDA-MB-231 breast, in the assay on MDA-MB-435, with MDA-N and with MOLT-4 leukemia was > 100 µM in each case. Moreover, the TGI with NCI-H226 lung, with NCI-H23 lung, in the assay on NCI-H460 lung, in the assay on NCI-H522 lung, with NCI/ADR-RES ovarian and with OVCAR-8 ovarian was > 100 µM in each case. The TGI in the assay on SF-268 CNS, in the assay on SK-MEL-5 melanoma, in the assay with SR leukemia, with SW-620 colon and in the assay on TK-10 renal was > 100 µM in each case.

For the compound `CC1=NN(c2cccc(Cl)c2)C2(SCC(=O)N2c2nc3ccccc3s2)/C1=C\c1ccc(N(C)C)cc1` (centres undefined), the TGI in the assay on CAKI-1 renal, in the assay with HCT-116 colon, in the assay with MDA-MB-231 breast, in the assay with MDA-MB-435, with MDA-N and in the assay on MOLT-4 leukemia was > 100 µM each time. Also, the TGI in the assay with NCI-H226 lung, in the assay with NCI-H23 lung, in the assay on NCI-H460 lung, with NCI-H522 lung, in the assay with NCI/ADR-RES ovarian and in the assay on OVCAR-8 ovarian was > 100 µM each time. In addition, the TGI in the assay with SF-268 CNS, in the assay with SK-MEL-5 melanoma, in the assay with SR leukemia, in the assay with SW-620 colon and in the assay with TK-10 renal was > 100 µM each time.

With `CC1=CC[C@H](C(C)C)C(C(O)[C@@H](C)O[Si](c2ccccc2)(c2ccccc2)C(C)(C)C)C1=O` (some centres undefined), the TGI is 36.2 µM with CAKI-1 renal; 28.7 µM in the assay with HCT-116 colon; 32.4 µM with MDA-MB-231 breast; 51.3 µM with MDA-MB-435; 53 µM in the assay with MDA-N; > 100 µM in the assay on MOLT-4 leukemia. Besides, the TGI in the assay with NCI-H226 lung was 44 µM; in the assay on NCI-H23 lung, 40.2 µM; in the assay on NCI-H460 lung, 37.2 µM; with NCI-H522 lung, 37.6 µM; with NCI/ADR-RES ovarian it was 38.1 µM; with OVCAR-8 ovarian, 54.1 µM. Besides, the TGI in the assay with SF-268 CNS was 54.8 µM; in the assay on SK-MEL-5 melanoma, 33.7 µM; with SR leukemia, > 100 µM; with SW-620 colon, 65.5 µM; with TK-10 renal, 31.7 µM.

For the compound `CC(C)(C)OCC1NC(=O)[C@@H]2Cc3c([nH]c4ccccc34)C(c3ccccc3)N2C1=O` (some centres undefined), the TGI is > 50 µM in the assay on CAKI-1 renal; > 50 µM in the assay on HCT-116 colon; > 50 µM in the assay on MDA-MB-231 breast; > 50 µM in the assay on MDA-MB-435; > 50 µM in the assay on MDA-N; > 32.7 µM in the assay with MOLT-4 leukemia. Moreover, the TGI with NCI-H226 lung, in the assay with NCI-H23 lung, with NCI-H460 lung, in the assay on NCI-H522 lung, with NCI/ADR-RES ovarian and with OVCAR-8 ovarian was > 50 µM each time. Besides, the TGI with SF-268 CNS was > 50 µM; with SK-MEL-5 melanoma it was > 50 µM; with SR leukemia, > 33 µM; in the assay with SW-620 colon, > 50 µM; in the assay with TK-10 renal it was > 50 µM.

`CC1(C)CCc2c(c(N=Nc3ccc(S(N)(=O)=O)cc3)c3ccccc3c2O)O1`: the TGI in the assay on CAKI-1 renal amounted to 62.1 µM; in the assay with HCT-116 colon it was 34.7 µM; with MDA-MB-231 breast, 8.77 µM; in the assay with MDA-MB-435 it was 22.5 µM; in the assay with MDA-N, 9.72 µM; in the assay on MOLT-4 leukemia, 82.7 µM. Further, the TGI with NCI-H226 lung was found to be 57.5 µM; in the assay on NCI-H23 lung, 24.5 µM; in the assay with NCI-H460 lung, 24.3 µM; in the assay with NCI-H522 lung it was 33.7 µM; in the assay on NCI/ADR-RES ovarian it was 59.9 µM; in the assay on OVCAR-8 ovarian it was 28.7 µM. The TGI in the assay with SF-268 CNS was 84.9 µM; in the assay on SK-MEL-5 melanoma it was 8.1 µM; in the assay on SR leukemia, 58.3 µM; with SW-620 colon, > 100 µM; with TK-10 renal, 38 µM.

`COC(=O)c1ccccc1C1CN=NC12Cc1ccccc1C2=O` (centres undefined): the TGI in the assay with CAKI-1 renal, with HCT-116 colon, in the assay on MDA-MB-231 breast, in the assay on MDA-MB-435, with MDA-N and in the assay with MOLT-4 leukemia was > 100 µM in each case. In addition, the TGI with NCI-H226 lung, in the assay with NCI-H23 lung, with NCI-H460 lung, in the assay on NCI-H522 lung, in the assay on NCI/ADR-RES ovarian and in the assay on OVCAR-8 ovarian was > 100 µM in each case. Moreover, the TGI in the assay with SF-268 CNS, in the assay on SK-MEL-5 melanoma, in the assay with SR leukemia, in the assay with SW-620 colon and in the assay on TK-10 renal was > 100 µM each time.

Turning to `O=c1c2cc(-c3ccccc3)sc2nc2n1N=C(c1ccc(Cl)cc1)CS2`, the TGI in the assay with CAKI-1 renal, in the assay on HCT-116 colon, with MDA-MB-231 breast, in the assay with MDA-MB-435, in the assay on MDA-N and in the assay with MOLT-4 leukemia was > 100 µM throughout. Moreover, the TGI in the assay on NCI-H226 lung, in the assay with NCI-H23 lung, in the assay on NCI-H460 lung, with NCI-H522 lung, in the assay on NCI/ADR-RES ovarian and in the assay on OVCAR-8 ovarian was > 100 µM throughout. Besides, the TGI in the assay with SF-268 CNS, in the assay with SK-MEL-5 melanoma, with SR leukemia, with SW-620 colon and in the assay with TK-10 renal was > 100 µM each time.

As for `O=C(N/N=C/c1c(-c2ccccc2)no[n+]1[O-])N1CCOCC1`, the TGI in the assay on CAKI-1 renal, in the assay on HCT-116 colon, with MDA-MB-231 breast, in the assay with MDA-MB-435, in the assay on MDA-N and with MOLT-4 leukemia was > 100 µM each time. The TGI with NCI-H226 lung, with NCI-H23 lung, with NCI-H460 lung, with NCI-H522 lung, with NCI/ADR-RES ovarian and in the assay with OVCAR-8 ovarian was > 100 µM throughout. The TGI was > 100 µM in the assay on SF-268 CNS; > 100 µM with SK-MEL-5 melanoma; 45.1 µM in the assay with SR leukemia; > 100 µM in the assay with SW-620 colon; > 100 µM in the assay on TK-10 renal.

As for `CCOP(=O)(OCC)/C(=C/NC(=S)c1ccncc1)C(=O)OC`, the TGI in the assay on CAKI-1 renal, in the assay with HCT-116 colon, in the assay on MDA-MB-231 breast, in the assay on MDA-MB-435, in the assay on MDA-N and with MOLT-4 leukemia was > 100 µM in each case. Besides, the TGI with NCI-H226 lung, in the assay with NCI-H23 lung, in the assay with NCI-H460 lung, in the assay with NCI-H522 lung, with NCI/ADR-RES ovarian and in the assay with OVCAR-8 ovarian was > 100 µM throughout. For the same compound, the TGI with SF-268 CNS, with SK-MEL-5 melanoma, in the assay with SR leukemia, in the assay with SW-620 colon and in the assay with TK-10 renal was > 100 µM in each case.

For `COc1cccc2c1CCc1cc3c(N)nc(N)nc3nc1-2`, the TGI was 45.7 µM in the assay with CAKI-1 renal; 8.09 µM in the assay with HCT-116 colon; 15.9 µM in the assay on MDA-MB-231 breast; 27.4 µM in the assay with MDA-MB-435; 18.1 µM in the assay on MDA-N; > 100 µM in the assay on MOLT-4 leukemia. Moreover, the TGI worked out at 43.2 µM with NCI-H226 lung; 18.2 µM in the assay with NCI-H23 lung; 25 µM in the assay with NCI-H460 lung; 10.8 µM with NCI-H522 lung; 46.7 µM with NCI/ADR-RES ovarian; 21.7 µM in the assay on OVCAR-8 ovarian. The TGI was 42.4 µM in the assay with SF-268 CNS; 10.2 µM with SK-MEL-5 melanoma; > 34.5 µM in the assay on SR leukemia; 25 µM with SW-620 colon; 47.3 µM with TK-10 renal.

For `c1ccc(C2=NCCN2)c(C2=NCCN2)c1`, the TGI in the assay with CAKI-1 renal, in the assay on HCT-116 colon, with MDA-MB-231 breast, in the assay with MDA-MB-435, with MDA-N and with MOLT-4 leukemia was > 100 µM throughout. Further, the TGI in the assay with NCI-H226 lung, in the assay on NCI-H23 lung, in the assay on NCI-H460 lung, in the assay with NCI-H522 lung, in the assay on NCI/ADR-RES ovarian and in the assay with OVCAR-8 ovarian was > 100 µM throughout. Moreover, the TGI in the assay on SF-268 CNS, in the assay with SK-MEL-5 melanoma, in the assay on SR leukemia, with SW-620 colon and with TK-10 renal was > 100 µM each time.

Consider `COC(=O)[C@]12CC[C@H]3CC[C@H]([C@H]31)[C@H](c1ccccc1)N2`, for which the TGI in the assay on CAKI-1 renal turned out to be 41.4 µM; with HCT-116 colon, 29.5 µM; in the assay on MDA-MB-231 breast, 30.6 µM; in the assay with MDA-MB-435, 34.6 µM; with MDA-N, 34.9 µM; in the assay on MOLT-4 leukemia, 56.5 µM. The TGI in the assay with NCI-H226 lung was found to be 31.6 µM; in the assay with NCI-H23 lung it was 37.2 µM; in the assay with NCI-H460 lung, 31.2 µM; in the assay with NCI-H522 lung, 37.7 µM; in the assay on NCI/ADR-RES ovarian it was 33.4 µM; in the assay on OVCAR-8 ovarian it was 37 µM. Besides, the TGI in the assay on SF-268 CNS came to 41.5 µM; with SK-MEL-5 melanoma it was 27.9 µM; in the assay with SR leukemia, 38.8 µM; in the assay with SW-620 colon, 53.2 µM; in the assay on TK-10 renal, 32 µM.
